The results in this text go back to patent publication US7053189B2 (Oregon Health & Sciences University, priority 1990, dated 2006).

Like-named read-outs stand apart in the source and are kept apart here.

Experiment [1] addresses D2 in pig anterior pituitary homogenates (Sus scrofa, UniProt A0ACM8QMZ9). The experiment is classed as binding. Conditions: for Ki: read-out: D2Ki.
Experiment [2] has as its target T1, human D4 dopamine receptor (Homo sapiens, UniProt P21917, DEL271-302/N396T/P18R).
T1 sequence (P21917 with tags, fused parts or gaps P18R/DEL271-302/N396T): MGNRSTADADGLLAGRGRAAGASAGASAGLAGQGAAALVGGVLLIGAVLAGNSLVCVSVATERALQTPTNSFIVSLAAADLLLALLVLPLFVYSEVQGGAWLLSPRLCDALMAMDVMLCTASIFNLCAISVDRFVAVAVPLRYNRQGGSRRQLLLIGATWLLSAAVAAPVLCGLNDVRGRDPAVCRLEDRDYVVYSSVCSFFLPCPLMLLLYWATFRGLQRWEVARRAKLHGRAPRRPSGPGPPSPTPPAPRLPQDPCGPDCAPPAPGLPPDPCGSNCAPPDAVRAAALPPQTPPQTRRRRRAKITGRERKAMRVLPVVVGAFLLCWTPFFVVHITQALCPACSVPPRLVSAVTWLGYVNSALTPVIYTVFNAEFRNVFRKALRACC

For experiment [3], the target named is T2, human D2 (long) (Homo sapiens, UniProt P14416).
T2 construct: expressed in transfected cells; host or cells: GH(4)ZR(7)
Briefly: D2 dissociation constants, human D2 receptor expressed in GH(4)ZR(7) cells. The experiment is classed as binding.

In experiment [4] the target is T1, human D4 dopamine receptor. As to the kind of experiment: [3H]spiperone binding to membranes of COS-7 cells transfected with human D4 receptor construct.
The target of experiment [5] is T1, human D4 dopamine receptor. As to the kind of experiment: biochemical.
The mark [6] stands for this setting: T = Ki in pig anterior pituitary homogenates, no unit in table.

Chain of D2 in pig anterior pituitary homogenates (A0ACM8QMZ9 1-443): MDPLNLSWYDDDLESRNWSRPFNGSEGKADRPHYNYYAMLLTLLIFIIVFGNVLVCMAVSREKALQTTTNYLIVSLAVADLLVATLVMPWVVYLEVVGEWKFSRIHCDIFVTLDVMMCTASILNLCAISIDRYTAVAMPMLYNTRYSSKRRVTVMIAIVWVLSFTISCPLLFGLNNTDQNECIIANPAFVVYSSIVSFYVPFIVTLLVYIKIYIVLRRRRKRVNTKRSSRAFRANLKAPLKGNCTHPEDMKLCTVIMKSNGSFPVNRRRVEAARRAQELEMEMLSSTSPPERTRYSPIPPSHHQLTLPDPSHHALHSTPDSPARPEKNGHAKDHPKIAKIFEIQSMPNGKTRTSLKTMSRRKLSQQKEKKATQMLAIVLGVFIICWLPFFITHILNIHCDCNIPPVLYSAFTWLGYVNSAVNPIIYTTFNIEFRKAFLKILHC
T2 sequence (P14416 whole entry): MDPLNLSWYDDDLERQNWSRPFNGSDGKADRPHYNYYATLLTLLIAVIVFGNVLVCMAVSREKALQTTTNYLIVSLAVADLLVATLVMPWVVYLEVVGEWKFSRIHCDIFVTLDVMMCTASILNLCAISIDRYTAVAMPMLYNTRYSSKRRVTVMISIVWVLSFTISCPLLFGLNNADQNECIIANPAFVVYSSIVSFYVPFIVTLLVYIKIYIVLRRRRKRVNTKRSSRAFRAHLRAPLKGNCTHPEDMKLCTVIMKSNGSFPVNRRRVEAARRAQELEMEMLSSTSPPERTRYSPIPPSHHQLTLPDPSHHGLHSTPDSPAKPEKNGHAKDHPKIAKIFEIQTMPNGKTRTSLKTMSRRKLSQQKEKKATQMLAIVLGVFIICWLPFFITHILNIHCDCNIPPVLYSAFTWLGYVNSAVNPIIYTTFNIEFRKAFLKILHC

As for `NC1CCc2cc(O)c(O)cc2C1` (racemic) [ADTN-(±)], the Ki in experiment [1] (setting [6]) was 1.7 nM; in experiment [2], 33.7 nM.

On to `NC[C@H](O)c1ccc(O)c(O)c1` [(−) Noradrenaline], for which, in experiment [1], the Ki is about 6000 nM.

For `CC(C)C[C@H]1C(=O)N2CCC[C@H]2[C@]2(O)O[C@](NC(=O)[C@@H]3C=C4c5cccc6[nH]c(Br)c(c56)C[C@H]4N(C)C3)(C(C)C)C(=O)N12` [Bromocriptine], the results for the Ki in experiment [3] and in experiment [4] were 14 nM and 128 nM, respectively.

With `CC(C)C[C@H]1C(=O)N2CCC[C@H]2[C@]2(O)O[C@](NC(=O)[C@@H]3C=C4c5cccc6[nH]cc(c56)C[C@H]4N(C)C3)(C(C)C)C(=O)N12` [Ergocriptine-S], the figures for the Ki in experiment [1] (setting [6]) and in experiment [4] (read-out: D4Ki) were 0.4 nM and 55 nM, respectively.

As for `CCc1cc(Cl)c(OC)c(C(=O)NC[C@@H]2CCCN2CC)c1O` [Eticlopnde], the “[formula] (ratio D2Ki to D4Ki)” value in experiment [1] is recorded as 0.17. The same molecule gave a Ki in experiment [4] of 0.52 nM.

Molecule `OCCN1CCN(CCCN2c3ccccc3Sc3ccc(C(F)(F)F)cc32)CC1` [Fluphenazine] had a Ki in experiment [5] of 42 nM.

As for `O=C(c1ccc(F)cc1)C1CCN(CCn2c(=O)[nH]c3ccccc3c2=O)CC1` [Ketanserin], the Ki in experiment [5] is 147 nM.

Turning to `CCCN(CCc1cccs1)[C@H]1CCc2c(O)cccc2C1` [N-0437], the Ki stood at 0.7 nM in experiment [1] (setting [6]) and 93 nM in experiment [2].

`CCCN1CCc2cccc3c2[C@H]1Cc1ccc(O)c(O)c1-3` [NPA]: the Ki is 0.4 nM in experiment [1] (setting [6]) and 5.5 nM in experiment [2].

For the molecule `CN1CCN(C2Cc3ccccc3Sc3ccc(Cl)cc32)CC1` (centres unmarked) [Octoclothepin-R], in experiment [1], the Ki stood at 13.5 nM.

On to `CCCN1CCO[C@@H]2c3cc(O)ccc3CC[C@H]21` [PHNO-(+)], for which the figures for the Ki in experiment [1] (setting [6]) and in experiment [2] were 1.2 nM and 42 nM, respectively.

`O=c1[nH]c2ccccc2n1C1CCN(CCCC(c2ccc(F)cc2)c2ccc(F)cc2)CC1` [Pimozide] showed a Ki in experiment [4] of 25 nM.

Regarding `CCCN1CCC[C@@H]2Cc3n[nH]cc3C[C@H]21` [Quinpirole(−)], in experiment [1] (setting [6]), the Ki worked out at 4.8 nM.

For `CCN1CCC[C@H]1CNC(=O)c1c(O)c(Cl)cc(Cl)c1OC` [Raclopride], the Ki in experiment [5] came to 253 nM.

In experiment [5], `CN1CCc2cc(Cl)c(O)cc2[C@@H](c2ccccc2)C1` [SCH23390] yielded a Ki of 1960 nM.

In experiment [4], `Oc1cc2c(cc1O)C(c1ccccc1)CNCC2` (centres unmarked) [SKF-38393] came in with a Ki of 1600 nM.

Consider `NCCc1c[nH]c2ccc(O)cc12` [Serotonin], for which, in experiment [5], the Ki is about 8000 nM.

Turning to `CN1CCN(CCCN2c3ccccc3Sc3ccc(S(=O)(=O)N(C)C)cc32)CC1` [Thioproperazine], the Ki in experiment [5] was found to be 53 nM.

As to `CSc1ccc2c(c1)N(CCC1CCCCN1C)c1ccccc1S2` (centres unmarked) [Thioridazine], in experiment [5], the Ki is 12 nM.

In the case of `CNc1cc(OC)c(C(=O)NC2CCN(Cc3ccccc3)C2C)cc1Cl` (centres unmarked) [YM-09151-2], the Ki in experiment [1] (setting [6]) worked out at 0.06 nM.

On to Fencidopam, for which the Ki in experiment [1] (setting [6]) is 2.8 nM; in experiment [2], 420 nM.
